From article PMC9413201, “Covalent Proteomimetic Inhibitor of the Bacterial FtsQB Divisome Complex” (Journal of the American Chemical Society, 2022)
Numbered stars: 1 amine (or outer) side, 2 acyl side, 3 side chain; on linkers, the order of the positions; unused ones are H or OH. Bridge positions count the residues as written; N and C are the ends. Square brackets hold non-standard residues; d marks the D form. Peptide text beside a SMILES is read from it. * marks the point of attachment. X1 = O=C([C@H](CCCCCC=[*:3])N[*:1])[*:2]; Nle = CCCC[C@H](N)C(=O)O; BrAc = O=C(CBr)*

Assays:
[1] = system: FtsB-mNG localization in E. coli lptD4213 (imp); assay: Localization of FtsB-mNG (fluorescence microscopy); format: cell-based; details: peptide c = 100 μM, 60 min after addition, MOPS rich medium, 37 °C
Experimental: were incubated for 1 h at 50 °C. The condensates were collected by centrifuging for 10 s. The digests were mixed for a few seconds and transferred to another tube. 0.5 % TFA was added to inactivate trypsin. The samples were […]
E.coli mutant lptD4213 (imp)
MOPS: MOPS EZ Rich Defined Medium Kit M2105 (Teknova).
At the end of the day, the cells
The next day, the cells were grown and diluted […]
objective. […] In all experiments, the cells […]
ex470/40, dic495LP, em525/50).

[2] = system: E. coli 87; format: cell-based, Escherichia coli
Experimental: 1.11 Checkerboard synergy assay
As described by Hsieh et al.,6 two-fold dilution series of cationic peptides were made in polypropylene microtiter plates (Ratiolab, L6018123, Dreieich, Germany) in 50 μL volume of MOPS medium/2% DMSO. Primary clinical isolates of Escherichia coli 87 were provided by Dr. Karin van Dijk, Amsterdam UMC. In a similar manner, two-fold dilution series of 17fα were made in polystyrene microtiter plates (Costar, REF3779, Corning NY, United States) in 70 μL volume of MOPS medium. Then, 50 μL of the 17fα series was transferred to the L8S1 containing polypropylene plate, resulting in a checkerboard titration of a L8S1 on the vertical axis and an 17fα on the horizontal axis. Mid-log phase cultures were diluted to OD600 0.1 and 10 μL culture was added to each well of the microtiter plate, resulting in a total volume of 110 μL and an OD600 of ~0.01 ([…]), and the OD600 was measured every 15 min for 12 h using the microplate reader. First, the MIC values of the compounds alone were determined as described previously. Similarly, the MIC values of the compound combination were determined (the fractional inhibitory concentrations (FIC))6. With these MIC values and FIC values, the fractional inhibitory concentration index (FICindex) was calculated as follows:
FIC = FICantibiotic + FICpeptide (1) […]

[3] = Toxicity test in uninfected zebrafish larvae; details: 15 zebrafish per condition, L8S1 3.125 µM, 17fα 70 µM, n = 1 replicate
[4] = system: E. coli lptD4213 (imp) cells; assay: Microscopy and morphology assay (cell length); format: cell-based; details: 17fα 100 μM
Experimental: 1.8 Microscopy and morphology assay
Morphology assays were executed to assess the physiological change of E.coli cells upon exposure to different peptides. All steps in this protocol were performed under sterile conditions. For each assay, 20 mL of fresh MOPS medium was prepared (40 mM MOPS, 4 mM tricine, 0.01 mM FeSO-4, 9.5 mM NH4Cl, 0.276 mM K2SO4, 0.5 […]
The next day, the overnight culture […]
was diluted to an OD600 of 0.1. […]
min, after which the supernatant was discarded.
The frozen samples were thawed and 3 μL of […]
morphology of the cells was investigated. […]
accessed on February 2020).
The FtsQ(50˗276) stock solution was diluted to
NH4HCO3 (pH 7.6), 150 mM NaCl).
The gel was placed in the container
Colloidal Coomassie staining solution […]
was washed 3x for 30 min with water.
The gel pieces were washed with 200 μL water by vortex mixing for 30 s. Then the water was discarded. The gel pieces were then washed with […]
discarded and the procedure repeated once.
The supernatants were discarded and 200 μL of 100 %
ACN added, mixed and incubated for 30 s. […] They were then

[5] = system: E. coli lptD4213 (imp); assay: Growth assay (OD600) with outer membrane-permeable E. coli lptD4213 (imp); format: cell-based
Experimental: Growth assays were performed to assess the in vitro cytotoxicity of peptides. The experiments were executed under sterile conditions. For each assay, 20 mL of fresh MOPS medium was prepared (Teknova Inc MOPS EZ Rich Defined Medium Kit | M2105: 40 mM MOPS, 4 mM Tricine, 0.01 mM FeSO4, 9.5 mM NH4Cl, 0.276 mM […]
MOPS medium with Streptomycin (30 μg/mL) and incubated overnight at 200 rpm and 37°C. The next day, the […]
peptide stocks in DMSO were diluted to four times the desired highest concentration to be measured in MOPS medium. The peptide dilutions were vortexed and briefly centrifuged. 50 μL of MOPS medium was added to each well of a Corning® 96-well Clear Flat Bottom Polystyrene TC-treated Microplate. A twofold dilution series was performed by adding 50 μL of the diluted peptide to the top row, mixing it and taking 50 μL to the next row. At each step the solution was resuspended five times. This was repeated until the last row which was skipped in order to obtain a reference measurement. After 2-3 h, the E.coli lptD4213 (imp) pre-culture was diluted to an OD600 of 0.00005. Then, 50 μL of diluted culture were added to each well and the plate sealed using a lid and parafilm. The OD600 was measured every 15 min over a period of more than 20 h (continuously shaking, 37°C) using a BioTek Synergy H1 plate reader. The obtained data were analyzed and relative growth curves plotted with GraphPad Prism 8. The assays were performed as technical triplicates. A single overnight pre-culture was used to prepare the diluted MOPS culture used in the growth assay. […]

## CCCC[C@@H]1NC(=O)[C@H](CO)NC(=O)[C@H](CC(C)C)NC(=O)[C@H](CCC(=O)O)NC(=O)[C@H](CC(N)=O)NC(=O)[C@@H](NC(=O)[C@H](C)NC(C)=O)CCCCCC=CCCCCC[C@@H](C(=O)N[C@@H](CCCCNC(=O)CBr)C(=O)N[C@@H](Cc2ccccc2)C(=O)N[C@@H](Cc2ccc(O)cc2)C(=O)N[C@@H](CCCNC(=N)N)C(=O)N[C@@H](CC(C)C)C(N)=O)NC(=O)CNC(=O)[C@@H]2CCCN2C(=O)[C@H](CCCNC(=N)N)NC(=O)[C@H]([C@@H](C)O)NC1=O [17fα] (Ac-A[X1]NELS[Nle]TRPG[X1]K(BrAc)FYRL-NH2; staple 2-12)
[1]
  FtsB-mNG midcell localization: loss of midcell localization
[2]; 17fα in combination with L8S1, checkerboard synergy assay, OD600 after 12 h, MIC = 90% growth inhibition, from averages of MICs (L8S1 n = 3, 17fα n = 5), ≤ 0.5 synergistic
  FICindex (fractional inhibitory concentration index): 0.33
[2]; clinical multidrug-resistant E. coli 87, MOPS medium, OD600
  inhibitor concentration required for growth inhibition: > 100 µM
[3]
  Surviving zebrafish, Day 1: 15
  Surviving zebrafish, Day 2: 15
[4]; 1 h
  cell length median (1h): 4.7 μm
[4]; 1 h, phase contrast microscopy, ImageJ/ObjectJ
  cell length mean (1h): 5.3 μm
[4]; 6 h
  cell length mean (6h): 12.4 μm
  cell length median (6h): 11.3 μm
[5]; concentration-dependent effect on growth after 15 h, highest tested concentration 100 μM, n = 3 replicates
  lowest concentration with inhibitory effect on growth: 12.5 µM
[5]; inhibitor c = 50 μM, OD600 every 15 min over 22 h, n = 3 technical replicates
  effect on bacterial growth (OD600): prevents bacterial growth
